{"source": "patent US8106055B2", "about": "“Substituted amide compounds” (Gruenenthal GmbH, priority 2007, dated 2012)"}
{"target": "T1, bradykinin 1 receptor (B1R) of the rat (Rattus norvegicus, UniProt P97583)", "T1 construct": "expressed in transfected cells; host or cells: CHO K1 cells", "T1 sequence (P97583 1-337)": "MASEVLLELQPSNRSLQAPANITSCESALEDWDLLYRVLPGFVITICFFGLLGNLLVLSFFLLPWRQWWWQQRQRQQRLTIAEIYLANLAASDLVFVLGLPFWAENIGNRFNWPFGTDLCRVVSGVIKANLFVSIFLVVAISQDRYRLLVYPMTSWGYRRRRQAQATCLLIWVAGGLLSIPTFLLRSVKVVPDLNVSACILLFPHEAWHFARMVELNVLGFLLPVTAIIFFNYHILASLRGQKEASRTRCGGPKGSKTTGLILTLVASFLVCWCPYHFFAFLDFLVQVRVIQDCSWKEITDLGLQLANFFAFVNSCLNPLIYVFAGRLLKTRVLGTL", "test": "Functional investigation on the rat bradykinin 1 receptor (B1R), Ca2+ FLIPR assay in CHO K1 rB1R cells", "format": "cell-based", "conditions": "CHO-K1, B1R antagonism rat; test substance 10 μM; Ca2+ FLIPR, CHO K1 rB1R cells; read-out: B1R Ant. r [10 μM] % Inhibition", "how_it_was_run": "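Fluo-4 Ca2+ readout, peak fluorescence. Stable CHO K1 transfectants; compound pre-incubated 10-20 min, then EC80 agonist—Lys-Des-Arg9-BK for hB1R, Des-Arg9-BK for rB1R. % inhibition vs maximal inhibition; IC50 from multiple concentrations, duplicate/triplicate, ≥2 independent runs.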", "units": {"inhibition at 10 µM": "%"}}
{"smiles": "CN(C)C(c1cccc(F)c1)C1CCC(NC(=O)COC2CCN(S(=O)(=O)c3ccc(F)cc3)C2)CC1", "note": "(centres unmarked) [Example 172, N-(4-((dimethylamino)(3-fluorophenyl)methyl)cyclohexyl)-2-(1-(4-fluorophenylsulfonyl)pyrrolidin-3-yloxy)acetamide]", "inhibition at 10 µM": 18}
{"smiles": "COc1cc(C)c(S(=O)(=O)N2CCC(OCC(=O)NC3CCC(C(c4cccc(F)c4)N(C)C)CC3)C2)c(C)c1C", "note": "(centres unmarked) [Example 189, N-(4-((dimethylamino)(3-fluorophenyl)methyl)cyclohexyl)-2-(1-(4-methoxy-2,3,6-trimethylphenylsulfonyl)pyrrolidin-3-yloxy)acetamide]", "inhibition at 10 µM": 16}
{"smiles": "CN(C)C(c1cccs1)C1CCC(CNC(=O)COC2CCCCC2N(C)S(=O)(=O)c2ccc(Cl)c(Cl)c2)CC1", "note": "(centres unmarked) [Example 31, 2-(2-(3,4-dichloro-N-methylphenylsulfonamido)cyclohexyloxy)-N-((4-((dimethylamino)(thiophen-2-yl)methyl)cyclohexyl)methyl)acetamide]", "inhibition at 10 µM": 11}
{"smiles": "COc1ccc(S(=O)(=O)N(C)CCOCC(=O)NCC2CCC(C(c3ccccc3)N(C)C)CC2)cc1OC", "note": "(centres unmarked) [Example 169, 2-(2-(3,4-dimethoxy-N-methylphenylsulfonamido)ethoxy)-N-((4-((dimethylamino)(phenyl)methyl)cyclohexyl)methyl)acetamide]", "inhibition at 10 µM": -15}
{"smiles": "CN(C)C(c1cccc(F)c1)C1CCC(CNC(=O)COCCN(C)S(=O)(=O)c2ccc(Cl)cc2)CC1", "note": "(centres unmarked) [Example 158, 2-(2-(4-chloro-N-methylphenylsulfonamido)ethoxy)-N-((4-((dimethylamino)(3-fluorophenyl)methyl)cyclohexyl)methyl)acetamide]", "inhibition at 10 µM": 5}
{"smiles": "COc1cc(C)c(S(=O)(=O)N2CCC(CCOCC(=O)NCC3CCC(C(c4ccccc4)N(C)C)CC3)CC2)c(C)c1C", "note": "(centres unmarked) [Example 146, N-((4-((dimethylamino)(phenyl)methyl)cyclohexyl)methyl)-2-(2-(1-(4-methoxy-2,3,6-trimethylphenylsulfonyl)piperidin-4-yl)ethoxy)acetamide]", "inhibition at 10 µM": 26}
{"smiles": "CN(C)C(c1ccccc1)C1CCC(NC(=O)COCCN(C)S(=O)(=O)c2c(F)c(F)c(F)c(F)c2F)CC1", "note": "(centres unmarked) [Example 136, N-(4-((dimethylamino)(phenyl)methyl)cyclohexyl)-2-(2-(2,3,4,5,6-pentafluoro-N-methylphenylsulfonamido)ethoxy)acetamide]", "inhibition at 10 µM": -2}
{"smiles": "COc1ccc(S(=O)(=O)N2CCCCC2COCC(=O)NCCC2CCC(C(c3cccc(F)c3)N(C)C)CC2)cc1", "note": "(centres unmarked) [Example 180, N-(2-(4-((dimethylamino)(3-fluorophenyl)methyl)cyclohexyl)ethyl)-2-((1-(4-methoxyphenylsulfonyl)piperidin-2-yl)methoxy)acetamide]", "inhibition at 10 µM": 68}
{"smiles": "COc1cc(C)c(S(=O)(=O)N2CCC(CCOCC(=O)NC3CCC(C(c4ccc(F)cc4)N(C)C)CC3)CC2)c(C)c1C", "note": "(centres unmarked) [Example 178, N-(4-((dimethylamino)(4-fluorophenyl)methyl)cyclohexyl)-2-(2-(1-(4-methoxy-2,3,6-trimethylphenylsulfonyl)piperidin-4-yl)ethoxy)acetamide]", "inhibition at 10 µM": 12}
{"smiles": "COc1cc(C)c(S(=O)(=O)N2CCN(CCOCC(=O)NC3CCC(C(c4ccccc4)N(C)C)CC3)CC2)c(C)c1C", "note": "(centres unmarked) [Example 20, N-(4-((dimethylamino)(phenyl)methyl)cyclohexyl)-2-(2-(4-(4-methoxy-2,3,6-trimethylphenylsulfonyl)piperazin-1-yl)ethoxy)acetamide]", "inhibition at 10 µM": -9}
{"smiles": "Cc1cc(C)c(S(=O)(=O)N2CCC(OCC(=O)NC3CCC(C(c4cccc(F)c4)N(C)C)CC3)C2)c(C)c1", "note": "(centres unmarked) [Example 140, N-(4-((dimethylamino)(3-fluorophenyl)methyl)cyclohexyl)-2-(1-(mesitylsulfonyl)pyrrolidin-3-yloxy)acetamide]", "inhibition at 10 µM": 30}
{"smiles": "COc1ccc(S(=O)(=O)N2CCC(OCC(=O)NCC3CCC(C(c4ccccc4)N(C)C)CC3)C2)cc1OC", "note": "(centres unmarked) [Example 22, 2-(1-(3,4-dimethoxyphenylsulfonyl)pyrrolidin-3-yloxy)-N-((4-((dimethylamino)(phenyl)methyl)cyclohexyl)methyl)acetamide]", "inhibition at 10 µM": 26}
{"smiles": "CCN(CCOCC(=O)NCC1CCC(C(c2cccs2)N(C)C)CC1)S(=O)(=O)c1c(C)cc(OC)c(C)c1C", "note": "(centres unmarked) [Example 16, N-((4-((dimethylamino)(thiophen-2-yl)methyl)cyclohexyl)methyl)-2-(2-(N-ethyl-4-methoxy-2,3,6-trimethylphenylsulfonamido)ethoxy)acetamide]", "inhibition at 10 µM": 59}
{"smiles": "COc1ccc(S(=O)(=O)N2CCCCC2COCC(=O)NCC2CCC(C(c3cccc(F)c3)N(C)C)CC2)c(OC)c1", "note": "(centres unmarked) [Example 151, 2-((1-(2,4-dimethoxyphenylsulfonyl)piperidin-2-yl)methoxy)-N-((4-((dimethylamino)(3-fluorophenyl)methyl)cyclohexyl)methyl)acetamide]", "inhibition at 10 µM": 23}
{"smiles": "COc1cc(C)c(S(=O)(=O)N(CCOCC(=O)NC2CCC(C(c3ccccc3)N(C)C)CC2)Cc2ccccc2)c(C)c1C", "note": "(centres unmarked) [Example 193, 2-(2-(N-benzyl-4-methoxy-2,3,6-trimethylphenylsulfonamido)ethoxy)-N-(4-((dimethylamino) (phenyl)methyl)cyclohexyl)acetamide]", "inhibition at 10 µM": 6}
{"smiles": "CN(C)C(c1cccs1)C1CCC(CCNC(=O)COC2CCN(S(=O)(=O)c3ccc(F)cc3)C2)CC1", "note": "(centres unmarked) [Example 138, N-(2-(4-((dimethylamino)(thiophen-2-yl)methyl)cyclohexyl)ethyl)-2-(1-(4-fluorophenylsulfonyl)pyrrolidin-3-yloxy)acetamide]", "inhibition at 10 µM": 30}
{"smiles": "COc1ccc(S(=O)(=O)N2CCCCC2COCC(=O)NCCC2CCC(C(c3cccc(F)c3)N(C)C)CC2)cc1OC", "note": "(centres unmarked) [Example 191, 2-((1-(3,4-dimethoxyphenylsulfonyl)piperidin-2-yl)methoxy)-N-(2-(4-((dimethylamino)(3-fluorophenyl)methyl)cyclohexyl)ethyl)acetamide]", "inhibition at 10 µM": -14}
{"smiles": "CN(C)C(c1cccs1)C1CCC(NC(=O)COCCN(C)S(=O)(=O)c2cccc(C(F)(F)F)c2)CC1", "note": "(centres unmarked) [Example 152, N-(4-((dimethylamino)(thiophen-2-yl)methyl)cyclohexyl)-2-(2-(N-methyl-3-(trifluoromethyl)phenylsulfonamido)ethoxy)acetamide]", "inhibition at 10 µM": 4}
{"smiles": "COc1ccc(S(=O)(=O)N(C)CCOCC(=O)NCC2CCC(C(c3cccs3)N(C)C)CC2)cc1", "note": "(centres unmarked) [Example 142, N-((4-((dimethylamino)(thiophen-2-yl)methyl)cyclohexyl)methyl)-2-(2-(4-methoxy-N-methylphenylsulfonamido)ethoxy)acetamide]", "inhibition at 10 µM": 41}
{"smiles": "CN(C)C(c1cccc(F)c1)C1CCC(NC(=O)COCCN(C)S(=O)(=O)c2ccc(Cl)cc2)CC1", "note": "(centres unmarked) [Example 196, 2-(2-(4-chloro-N-methylphenylsulfonamido)ethoxy)-N-(4-((dimethylamino)(3-fluorophenyl)methyl)cyclohexyl)acetamide]", "inhibition at 10 µM": 27}
{"smiles": "COc1ccc(S(=O)(=O)N2Cc3ccccc3CC2COCC(=O)NCCC2CCC(C(c3cccc(F)c3)N(C)C)CC2)cc1", "note": "(centres unmarked) [Example 190, N-(2-(4-((dimethylamino) (3-fluorophenyl)methyl)cyclohexyl)ethyl)-2-((2-(4-methoxyphenylsulfonyl)-1,2,3,4-tetrahydroisoquinolin-3-yl)methoxy)acetamide]", "inhibition at 10 µM": 18}
{"smiles": "COc1cc(C)c(S(=O)(=O)N2CCC(OCC(=O)NCCC3CCC(C(c4cccs4)N(C)C)CC3)CC2)c(C)c1C", "note": "(centres unmarked) [Example 177, N-(2-(4-((dimethylamino)(thiophen-2-yl)methyl)cyclohexyl)ethyl)-2-(1-(4-methoxy-2,3,6-trimethylphenylsulfonyl)piperidin-4-yloxy)acetamide]", "inhibition at 10 µM": 45}
{"smiles": "COc1cc(C)c(S(=O)(=O)N(C)CCOCC(=O)NCC2CCC(C(c3ccccc3)N(C)C)CC2)c(C)c1", "note": "(centres unmarked) [Example 137, N-((4-((dimethylamino)(phenyl)methyl)cyclohexyl)methyl)-2-(2-(4-methoxy-N,2,6-trimethylphenylsulfonamido)ethoxy)acetamide]", "inhibition at 10 µM": 100}
{"smiles": "COc1ccc(S(=O)(=O)N2Cc3ccccc3CC2COCC(=O)NCC2CCC(C(c3ccccc3)N(C)C)CC2)cc1", "note": "(centres unmarked) [Example 19, N-((4-((dimethylamino)(phenyl)methyl)cyclohexyl)methyl)-2-((2-(4-methoxyphenylsulfonyl)-1,2,3,4-tetrahydroisoquinolin-3-yl)methoxy)acetamide]", "inhibition at 10 µM": 4}
{"smiles": "COc1ccc(S(=O)(=O)N2Cc3ccccc3CC2COCC(=O)NCC2CCC(C(c3cccc(F)c3)N(C)C)CC2)cc1", "note": "(centres unmarked) [Example 163, N-((4-((dimethylamino)(3-fluorophenyl)methyl)cyclohexyl)methyl)-2-((2-(4-methoxyphenylsulfonyl)-1,2,3,4-tetrahydroisoquinolin-3-yl)methoxy)acetamide]", "inhibition at 10 µM": 36}
{"smiles": "Cc1cc(C)c(S(=O)(=O)N2CCC(OCC(=O)NCC3CCC(C(c4cccc(F)c4)N(C)C)CC3)C2)c(C)c1", "note": "(centres unmarked) [Example 141, N-((4-((dimethylamino)(3-fluorophenyl)methyl)cyclohexyl)methyl)-2-(1-(mesitylsulfonyl)pyrrolidin-3-yloxy)acetamide]", "inhibition at 10 µM": 26}
